According to article PMC6437697 (Journal of Medicinal Chemistry, 2019):

Columns and labels:
Assay in all cases: KINOMEscan
Format in all cases: binding
Conditions in all cases: read-out: % control activity remaining
SBK1 = molecular target: T1, SBK1 (Homo sapiens, UniProt Q52WX2)
T1 construct: purchased Eurofins DiscoverX KINOMEscan

CDC2L5 = molecular target: T2, CDC2L5 (Homo sapiens, UniProt Q14004)
T2 construct: purchased Eurofins DiscoverX KINOMEscan

NDR1 = molecular target: T3, NDR1 (Homo sapiens, UniProt Q15208)
T3 construct: purchased Eurofins DiscoverX KINOMEscan
T3 sequence (Q15208 whole entry): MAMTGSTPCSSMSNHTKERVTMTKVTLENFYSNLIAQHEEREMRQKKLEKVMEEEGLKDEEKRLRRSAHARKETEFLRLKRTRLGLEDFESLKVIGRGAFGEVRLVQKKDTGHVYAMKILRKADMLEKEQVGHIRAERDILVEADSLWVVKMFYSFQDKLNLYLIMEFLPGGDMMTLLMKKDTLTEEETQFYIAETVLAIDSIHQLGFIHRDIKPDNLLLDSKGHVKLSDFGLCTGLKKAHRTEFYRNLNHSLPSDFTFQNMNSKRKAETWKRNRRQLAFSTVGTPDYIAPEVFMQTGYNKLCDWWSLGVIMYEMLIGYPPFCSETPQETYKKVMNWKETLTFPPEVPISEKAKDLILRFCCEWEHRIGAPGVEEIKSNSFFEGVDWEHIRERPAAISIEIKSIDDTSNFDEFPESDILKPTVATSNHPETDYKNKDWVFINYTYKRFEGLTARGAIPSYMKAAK

MINK = molecular target: T4, MINK (Homo sapiens, UniProt Q8N4C8)
T4 construct: purchased Eurofins DiscoverX KINOMEscan
T4 sequence (Q8N4C8 whole entry): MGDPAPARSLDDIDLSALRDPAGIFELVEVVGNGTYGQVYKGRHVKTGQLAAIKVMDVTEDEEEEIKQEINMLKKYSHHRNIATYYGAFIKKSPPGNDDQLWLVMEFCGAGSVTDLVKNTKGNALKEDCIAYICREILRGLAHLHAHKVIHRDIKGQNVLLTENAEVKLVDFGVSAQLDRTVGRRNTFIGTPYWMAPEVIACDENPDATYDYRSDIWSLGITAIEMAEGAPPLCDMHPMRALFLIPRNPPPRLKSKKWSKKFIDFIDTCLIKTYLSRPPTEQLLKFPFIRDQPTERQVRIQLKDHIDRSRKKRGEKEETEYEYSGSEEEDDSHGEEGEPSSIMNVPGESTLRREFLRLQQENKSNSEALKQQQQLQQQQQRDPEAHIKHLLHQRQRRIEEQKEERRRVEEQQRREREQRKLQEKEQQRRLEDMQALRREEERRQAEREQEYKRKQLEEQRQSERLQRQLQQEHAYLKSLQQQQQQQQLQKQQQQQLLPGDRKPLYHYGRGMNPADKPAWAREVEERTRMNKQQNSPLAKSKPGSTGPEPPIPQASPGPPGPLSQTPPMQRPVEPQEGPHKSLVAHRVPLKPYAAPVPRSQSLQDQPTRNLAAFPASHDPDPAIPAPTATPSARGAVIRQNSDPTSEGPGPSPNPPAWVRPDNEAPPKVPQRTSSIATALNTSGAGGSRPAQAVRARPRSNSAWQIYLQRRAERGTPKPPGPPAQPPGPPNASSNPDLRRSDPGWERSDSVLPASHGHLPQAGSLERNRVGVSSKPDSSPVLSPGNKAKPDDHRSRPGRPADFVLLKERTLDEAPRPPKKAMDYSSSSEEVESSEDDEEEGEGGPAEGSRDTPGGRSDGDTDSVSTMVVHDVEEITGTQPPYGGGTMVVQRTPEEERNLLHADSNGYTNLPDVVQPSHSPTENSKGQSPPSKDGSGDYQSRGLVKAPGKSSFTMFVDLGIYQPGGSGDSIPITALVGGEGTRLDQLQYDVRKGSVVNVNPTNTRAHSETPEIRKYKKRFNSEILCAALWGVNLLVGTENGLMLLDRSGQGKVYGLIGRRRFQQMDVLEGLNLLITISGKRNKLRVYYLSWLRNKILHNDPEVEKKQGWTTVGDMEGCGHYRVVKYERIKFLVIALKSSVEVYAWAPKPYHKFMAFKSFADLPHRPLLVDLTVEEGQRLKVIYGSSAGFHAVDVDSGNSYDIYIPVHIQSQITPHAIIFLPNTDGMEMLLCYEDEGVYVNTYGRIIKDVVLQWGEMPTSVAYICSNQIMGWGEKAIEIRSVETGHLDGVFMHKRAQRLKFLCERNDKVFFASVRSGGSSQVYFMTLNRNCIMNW

EIF2AK1 = molecular target: T5, EIF2AK1 (Homo sapiens, UniProt Q9BQI3)
T5 construct: purchased Eurofins DiscoverX KINOMEscan

SRC = molecular target: T6, SRC (Homo sapiens, UniProt P12931)
T6 construct: purchased Eurofins DiscoverX KINOMEscan

CSNK2A2 = molecular target: T7, CSNK2A2 (Homo sapiens, UniProt P19784)
T7 construct: purchased Eurofins DiscoverX KINOMEscan

LRRK2 = molecular target: T8, LRRK2 (Homo sapiens, UniProt Q5S007)
T8 construct: purchased Eurofins DiscoverX KINOMEscan
T8 sequence (Q5S007 whole entry): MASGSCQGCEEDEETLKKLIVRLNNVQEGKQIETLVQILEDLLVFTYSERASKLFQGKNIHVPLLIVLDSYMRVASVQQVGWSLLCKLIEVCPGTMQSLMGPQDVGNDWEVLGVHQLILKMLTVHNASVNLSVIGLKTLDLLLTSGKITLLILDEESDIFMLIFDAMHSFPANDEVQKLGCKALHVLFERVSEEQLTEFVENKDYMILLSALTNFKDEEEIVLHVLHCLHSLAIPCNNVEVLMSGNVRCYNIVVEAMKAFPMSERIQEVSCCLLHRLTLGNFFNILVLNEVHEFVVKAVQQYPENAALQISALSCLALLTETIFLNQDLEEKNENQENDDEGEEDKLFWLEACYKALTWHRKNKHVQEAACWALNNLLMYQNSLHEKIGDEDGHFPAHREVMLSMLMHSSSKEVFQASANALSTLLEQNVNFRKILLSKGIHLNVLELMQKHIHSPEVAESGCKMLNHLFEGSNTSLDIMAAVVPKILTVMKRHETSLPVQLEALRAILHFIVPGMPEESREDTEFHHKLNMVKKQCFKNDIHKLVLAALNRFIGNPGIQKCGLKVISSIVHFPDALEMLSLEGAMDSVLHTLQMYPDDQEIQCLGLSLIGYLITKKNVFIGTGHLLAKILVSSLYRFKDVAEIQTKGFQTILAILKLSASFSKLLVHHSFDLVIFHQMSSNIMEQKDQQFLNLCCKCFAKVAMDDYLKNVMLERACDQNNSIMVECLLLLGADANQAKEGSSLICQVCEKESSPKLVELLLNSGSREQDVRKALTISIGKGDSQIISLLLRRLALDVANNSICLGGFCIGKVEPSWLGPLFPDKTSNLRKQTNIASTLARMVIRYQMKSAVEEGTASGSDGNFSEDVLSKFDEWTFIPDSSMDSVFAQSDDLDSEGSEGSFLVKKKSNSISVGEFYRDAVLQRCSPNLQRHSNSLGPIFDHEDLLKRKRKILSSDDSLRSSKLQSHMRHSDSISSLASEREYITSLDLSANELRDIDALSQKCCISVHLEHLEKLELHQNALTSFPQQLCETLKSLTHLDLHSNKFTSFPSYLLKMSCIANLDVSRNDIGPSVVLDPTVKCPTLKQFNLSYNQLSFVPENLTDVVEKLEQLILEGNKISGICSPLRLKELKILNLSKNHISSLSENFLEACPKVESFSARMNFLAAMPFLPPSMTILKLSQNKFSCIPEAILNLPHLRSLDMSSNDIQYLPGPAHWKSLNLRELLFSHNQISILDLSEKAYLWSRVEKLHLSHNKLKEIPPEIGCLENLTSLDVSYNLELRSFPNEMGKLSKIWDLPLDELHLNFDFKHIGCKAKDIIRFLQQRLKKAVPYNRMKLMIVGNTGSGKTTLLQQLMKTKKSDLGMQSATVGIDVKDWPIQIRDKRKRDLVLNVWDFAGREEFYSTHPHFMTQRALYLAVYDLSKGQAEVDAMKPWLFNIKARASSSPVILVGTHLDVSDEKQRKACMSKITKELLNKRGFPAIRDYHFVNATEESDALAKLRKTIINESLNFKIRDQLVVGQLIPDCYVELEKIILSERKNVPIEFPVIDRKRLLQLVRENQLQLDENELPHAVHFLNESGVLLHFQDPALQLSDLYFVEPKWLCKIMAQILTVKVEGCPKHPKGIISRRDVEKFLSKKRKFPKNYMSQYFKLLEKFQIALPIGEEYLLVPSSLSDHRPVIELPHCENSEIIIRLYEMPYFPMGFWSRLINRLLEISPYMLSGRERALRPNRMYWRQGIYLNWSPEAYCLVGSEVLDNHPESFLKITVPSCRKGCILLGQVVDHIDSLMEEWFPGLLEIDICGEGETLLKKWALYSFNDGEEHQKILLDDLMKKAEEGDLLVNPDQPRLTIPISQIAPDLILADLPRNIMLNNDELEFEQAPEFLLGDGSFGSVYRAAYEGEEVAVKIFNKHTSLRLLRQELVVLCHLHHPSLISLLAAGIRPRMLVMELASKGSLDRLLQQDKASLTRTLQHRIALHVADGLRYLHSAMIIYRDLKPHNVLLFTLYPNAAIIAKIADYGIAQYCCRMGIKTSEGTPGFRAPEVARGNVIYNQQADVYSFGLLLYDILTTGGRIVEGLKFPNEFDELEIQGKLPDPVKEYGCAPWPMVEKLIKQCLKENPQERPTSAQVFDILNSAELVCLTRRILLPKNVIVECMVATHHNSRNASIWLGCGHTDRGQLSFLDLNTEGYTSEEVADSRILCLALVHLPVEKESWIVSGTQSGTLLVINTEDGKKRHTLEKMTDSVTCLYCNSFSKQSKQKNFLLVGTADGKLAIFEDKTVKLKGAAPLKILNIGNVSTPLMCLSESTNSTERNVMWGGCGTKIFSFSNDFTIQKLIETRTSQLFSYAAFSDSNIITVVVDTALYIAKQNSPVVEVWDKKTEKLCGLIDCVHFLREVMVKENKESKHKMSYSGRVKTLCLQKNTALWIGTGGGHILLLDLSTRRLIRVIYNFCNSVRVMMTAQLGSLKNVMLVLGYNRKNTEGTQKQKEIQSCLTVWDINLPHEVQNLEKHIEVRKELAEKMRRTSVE

MAP3K3 = molecular target: T9, MAP3K3 (Homo sapiens, UniProt Q99759)
T9 construct: purchased Eurofins DiscoverX KINOMEscan
T9 sequence (Q99759 1-626): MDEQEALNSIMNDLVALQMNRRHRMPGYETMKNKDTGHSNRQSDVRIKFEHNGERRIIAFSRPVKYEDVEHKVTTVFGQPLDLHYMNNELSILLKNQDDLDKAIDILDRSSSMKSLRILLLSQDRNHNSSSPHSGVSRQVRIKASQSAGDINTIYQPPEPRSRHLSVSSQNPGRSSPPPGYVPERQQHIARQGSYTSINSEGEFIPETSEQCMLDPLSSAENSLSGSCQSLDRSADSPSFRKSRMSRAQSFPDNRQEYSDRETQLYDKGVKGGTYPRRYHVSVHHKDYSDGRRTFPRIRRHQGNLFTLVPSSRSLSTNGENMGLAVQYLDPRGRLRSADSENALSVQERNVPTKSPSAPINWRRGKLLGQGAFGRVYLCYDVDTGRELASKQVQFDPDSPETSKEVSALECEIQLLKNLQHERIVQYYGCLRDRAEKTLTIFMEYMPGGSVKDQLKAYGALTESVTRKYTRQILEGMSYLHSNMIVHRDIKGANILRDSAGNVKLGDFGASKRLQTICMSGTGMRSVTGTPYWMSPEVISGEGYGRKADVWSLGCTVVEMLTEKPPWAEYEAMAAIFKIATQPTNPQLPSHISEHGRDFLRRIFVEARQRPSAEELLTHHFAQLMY

p38-gamma = molecular target: T10, p38-gamma (Homo sapiens, UniProt P53778)
T10 construct: purchased Eurofins DiscoverX KINOMEscan
T10 sequence (P53778 1-367): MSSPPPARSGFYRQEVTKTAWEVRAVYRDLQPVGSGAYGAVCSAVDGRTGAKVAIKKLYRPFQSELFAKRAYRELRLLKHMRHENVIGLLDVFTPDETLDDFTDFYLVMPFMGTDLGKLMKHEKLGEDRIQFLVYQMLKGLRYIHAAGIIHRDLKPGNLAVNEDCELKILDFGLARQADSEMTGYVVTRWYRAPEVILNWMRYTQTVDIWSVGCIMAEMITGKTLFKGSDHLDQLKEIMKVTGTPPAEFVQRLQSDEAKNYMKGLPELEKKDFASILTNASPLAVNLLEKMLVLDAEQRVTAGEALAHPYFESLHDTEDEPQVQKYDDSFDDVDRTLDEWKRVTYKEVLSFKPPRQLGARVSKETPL

BRSK2 = molecular target: T11, BRSK2 (Homo sapiens, UniProt Q8IWQ3)
T11 construct: purchased Eurofins DiscoverX KINOMEscan
T11 sequence (Q8IWQ3 1-736): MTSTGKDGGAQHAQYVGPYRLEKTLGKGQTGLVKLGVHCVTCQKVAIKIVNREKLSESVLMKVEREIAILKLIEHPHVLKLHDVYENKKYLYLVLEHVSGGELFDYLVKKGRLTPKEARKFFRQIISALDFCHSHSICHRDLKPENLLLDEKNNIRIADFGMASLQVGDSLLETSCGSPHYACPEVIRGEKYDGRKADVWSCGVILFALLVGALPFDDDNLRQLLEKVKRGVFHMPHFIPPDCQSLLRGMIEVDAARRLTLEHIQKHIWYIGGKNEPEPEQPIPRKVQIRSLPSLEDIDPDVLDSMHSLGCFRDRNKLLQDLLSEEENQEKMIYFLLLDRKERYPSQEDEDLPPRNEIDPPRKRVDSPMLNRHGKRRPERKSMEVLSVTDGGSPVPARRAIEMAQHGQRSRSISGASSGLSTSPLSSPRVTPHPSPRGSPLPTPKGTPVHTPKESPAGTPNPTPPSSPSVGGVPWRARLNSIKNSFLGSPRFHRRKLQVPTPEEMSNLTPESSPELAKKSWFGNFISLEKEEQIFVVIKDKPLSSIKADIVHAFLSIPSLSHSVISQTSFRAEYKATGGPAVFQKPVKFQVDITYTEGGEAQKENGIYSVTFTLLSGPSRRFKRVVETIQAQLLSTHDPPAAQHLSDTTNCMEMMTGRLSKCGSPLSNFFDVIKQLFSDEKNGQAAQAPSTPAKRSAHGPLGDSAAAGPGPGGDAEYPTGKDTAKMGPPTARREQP

PIM3 = molecular target: T12, PIM3 (Homo sapiens, UniProt Q86V86)
T12 construct: purchased Eurofins DiscoverX KINOMEscan

PRKCQ = molecular target: T13, PRKCQ (Homo sapiens, UniProt Q04759)
T13 construct: purchased Eurofins DiscoverX KINOMEscan

NLK = molecular target: T14, NLK (Homo sapiens, UniProt Q9UBE8)
T14 construct: purchased Eurofins DiscoverX KINOMEscan
T14 sequence (Q9UBE8 1-527): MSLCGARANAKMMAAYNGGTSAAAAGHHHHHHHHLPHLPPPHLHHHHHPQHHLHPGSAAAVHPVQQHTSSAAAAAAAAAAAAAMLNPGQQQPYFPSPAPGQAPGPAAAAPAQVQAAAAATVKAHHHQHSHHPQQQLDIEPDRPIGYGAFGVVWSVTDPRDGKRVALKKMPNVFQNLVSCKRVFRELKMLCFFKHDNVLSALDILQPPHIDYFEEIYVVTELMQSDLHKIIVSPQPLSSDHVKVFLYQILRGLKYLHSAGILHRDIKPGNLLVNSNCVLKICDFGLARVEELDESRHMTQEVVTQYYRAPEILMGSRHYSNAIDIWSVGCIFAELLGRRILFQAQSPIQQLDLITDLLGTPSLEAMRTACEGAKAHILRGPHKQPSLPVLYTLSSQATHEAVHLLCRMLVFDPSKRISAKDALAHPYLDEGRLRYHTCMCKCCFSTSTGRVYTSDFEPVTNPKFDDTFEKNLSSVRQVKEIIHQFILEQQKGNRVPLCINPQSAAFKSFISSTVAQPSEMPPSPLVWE

T1 sequence (Q52WX2 whole entry): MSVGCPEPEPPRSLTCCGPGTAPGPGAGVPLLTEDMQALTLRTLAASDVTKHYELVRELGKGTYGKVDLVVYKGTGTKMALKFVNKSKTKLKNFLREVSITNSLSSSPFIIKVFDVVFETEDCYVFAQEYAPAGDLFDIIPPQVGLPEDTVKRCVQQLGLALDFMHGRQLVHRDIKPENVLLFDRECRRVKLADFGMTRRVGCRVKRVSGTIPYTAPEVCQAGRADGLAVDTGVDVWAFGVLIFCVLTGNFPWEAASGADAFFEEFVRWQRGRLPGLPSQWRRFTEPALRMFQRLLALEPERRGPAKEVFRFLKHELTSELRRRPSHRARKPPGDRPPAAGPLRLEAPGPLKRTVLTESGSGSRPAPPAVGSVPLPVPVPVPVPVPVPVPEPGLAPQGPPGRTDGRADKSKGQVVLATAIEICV

| Structure (SMILES) | remaining binding at 1 µM (SBK1) [%] | remaining binding at 1 µM (CDC2L5) [%] | remaining binding at 1 µM (NDR1) [%] | remaining binding at 1 µM (MINK) [%] | remaining binding at 1 µM (EIF2AK1) [%] | remaining binding at 1 µM (SRC) [%] | remaining binding at 1 µM (CSNK2A2) [%] | remaining binding at 1 µM (LRRK2) [%] | remaining binding at 1 µM (MAP3K3) [%] | remaining binding at 1 µM (p38-gamma) [%] | remaining binding at 1 µM (BRSK2) [%] | remaining binding at 1 µM (PIM3) [%] | remaining binding at 1 µM (PRKCQ) [%] | remaining binding at 1 µM (NLK) [%] |
| --- | --- | --- | --- | --- | --- | --- | --- | --- | --- | --- | --- | --- | --- | --- |
| Clc1cc(NCC2CC2)c2ncc(-c3ccc4[nH]ncc4c3)n2n1 [compound 2, 6-Chloro-N-(cyclopropylmethyl)-3-(1H-indazol-5-yl)imidazo[1,2-b]pyridazin-8-amine] | 87 | 92 | 75 | 72 | 100 | 100 | 94 | 94 | 88 | 73 | 100 | 95 | 94 | 70 |
| O=C(CN1CCOCC1)N[C@H]1CC[C@H](Nc2cc(Cl)nn3c(-c4ccc5[nH]ncc5c4)cnc23)CC1 [compound 26] | 89 | 84 | 96 | 57 | 78 | 100 | 100 | 90 | 89 | 91 | 98 | 71 | 85 | 100 |
| CN1CCC(CNc2cc(Cl)nn3c(-c4cc5nc(Nc6ccccc6)[nH]c5cc4F)cnc23)CC1 [compound 31, 6-Chloro-3-(6-fluoro-2-(phenylamino)-1H-benzo[d]imidazol-5-yl)-N-((1-methylpiperidin-4-yl)methyl)imidazo[1,2-b]pyridazin-8-amine] | 77 | 96 | 86 | 87 | 78 | 100 | 100 | 100 | 73 | 83 | 84 | 92 | 100 | 100 |
